# Test results from paper PMC8070256, “Feasibility of Developing Radiotracers for MDM2: Synthesis and Preliminary Evaluation of an ^18F-Labeled Analogue of the MDM2 Inhibitor SP-141” (Pharmaceuticals, 2021).
# Values joined by “and” are separate entries in the source; they are usually repeats but may differ in a detail not shown here. Equal values may be shown once.
# How the values were obtained:
# [1] = tested on: MCF-7 cells; test: Cell uptake of [^18F]1 in MCF-7 cells after 21 h pretreatment; format: cell-based, human; conditions: 1 h uptake
# Procedure: (§1) The ability of [^18F]1 to bind to MDM2 expressing human tumor cells was assessed using two wild-type p53 cell lines, MCF-7 breast adenocarcinoma, and HepG2 hepatocellular carcinoma. These cell lines have significant MDM2 expression levels and have been utilized previously for assessing potential MDM2 inhibitors, including SP-141 [12, 24, 25]. […] Thus, to examine the uptake and specificity of [^18F]1 by MDM2 expressing tumor cell lines, MCF-7 and HepG2 cells were treated with 0, 1, 5, or 10 µM SP-141 for 21 h, and then assessed for [^18F]1 uptake for 1 h.
# (§2) Cell uptake studies of [^18F]1 were conducted using MCF-7 and HepG2 cell lines. Briefly, cells plated in 24-well plates (200,000/well) were treated with varying concentrations of SP-141 (1, 5, or 10 µM) or vehicle for 21 h and incubated with a fresh medium containing [^18F]1 (~18.5 kBq in 0.5 mL medium) for 1 h. Next, the incubation medium was removed, cells were rinsed with cold PBS (3 × 0.5 mL) and lysed using Cell Culture Lysis Reagent (0.25 mL, Promega Corporation, Madison, WI, USA) followed by a rinse with PBS (0.125 mL/well). For each well, the supernatant, PBS washes, and the cell lysate were measured for radioactivity in an automated gamma counter (Wallac Wizard™, Perkin Elmer, Waltham, MA, USA). Subsequently, cell lysates were analyzed for protein concentration using the Bradford assay (Bio-Rad, Hercules, CA, USA). Cell uptake for each well was normalized to its protein content and expressed as % uptake/mg protein. Results are presented as mean ± SD for three wells.
# [2] = tested on: HepG2 cells; test: Cell uptake of [^18F]1 in HepG2 cells after 21 h pretreatment; format: cell-based, human; conditions: vehicle-treated HepG2 cells, 1 h uptake
# Procedure: as §1
# as §2, with “Briefly, cells plated in 24-well plates (200,000/well) were treated with varying concentrations of SP-141 (1, 5, or 10 µM) or vehicle for 21 h and incubated with a fresh medium containing [^18F]1 (~18.5 kBq in 0.5 mL medium) for 1 h.” left out
# [3] = tested on: MCF-7 cells; test: Saturation binding assay with [^18F]1 on MCF-7 cells; parameters: species or system human; conditions: 30 min incubation, nonspecific binding from cells pretreated with 1 µM SP-141 for 25 h, read-out: Kd (equilibrium dissociation constant)
# Procedure: Next, saturation binding assays were conducted to evaluate the binding affinity of [^18F]1 on MCF-7 cells. In these experiments, MCF-7 cells seeded in 24-well plates were incubated for 30 min with eight increasing concentrations of [^18F]1 in serial two-fold dilutions (185.5–1.4 nM). Nonspecific binding was assessed in parallel using cells that were pretreated with 1 µM SP-141 for about 25 h to induce MDM2 degradation, thereby depleting MDM2 from the cells. Uptake of [^18F]1 in SP-141-pretreated cells was considered nonspecific and was subtracted from the total binding data for untreated cells at each radiotracer concentration to calculate the equilibrium dissociation constant (Kd) by nonlinear regression analysis in Graphpad Prism®.
# For the saturation binding assay with [^18F]1, MCF-7 cells plated in 24-well plates (200,000 cells/well) were treated for 25 h with vehicle (DMSO, <5%; plate #1, for total binding) or SP-141 (1 µM; plate #2, to determine nonspecific binding). […] At each concentration of [^18F]1, nonspecific binding was determined in parallel (plate #2) in cells treated with 1 µM SP-141 to induce MDM2 degradation. Specific binding data were calculated by subtracting nonspecific binding from total binding and fit using the equation “Specific binding with Hill slope” in GraphPad Prism® (GraphPad, v5.01). […]
smiles,measurement,setting,value
[18F]CCOc1ccc2[nH]c3c(-c4cccc5ccccc45)nccc3c2c1 [[^18F]1],[^18F]1 uptake,"[1]; MCF-7 cells treated with SP-141 (1, 5 or 10 µM) for 21 h",≤ 18.5 ± 0.0 %/mg protein
same,[^18F]1 uptake,[1]; vehicle-treated control MCF-7 cells,71.4 %/mg protein and 71.4 ± 0.0 %/mg protein
same,"[^18F]1 uptake, baseline",[2],67.5 %/mg protein and ~ 68 %/mg protein
same,Kd,[3],78.1 nM
